Legend:
lung IRI = settings: wild-type mice pretreated, left hilar ligation model; 1 mg/kg intravenous dose; cited from earlier work
TRPV4 = settings: cited from earlier work
[1] = tested on: porcine transplantation model of lung IRI; assay: Porcine left lung transplant model of lung IRI; format: in vivo, swine; settings: for left lung-specific PaO2/FiO2 ratio: 1 mg/kg i.v., mean±SD
Description: The University of Virginia's Animal Care and Use Committee approved this study, protocol 4262 (approved 10/23/2021). All procedures were performed in compliance with the National Institutes of Health 1996 Guide for the Care and Use of Laboratory Animals. Ten farm-raised, domestic swine of both sexes (31.6-60.0 kg weight range) were utilized. Animals were randomized to one of two groups (n=5/group). […] GSK219 or vehicle was administered as a systemic, intravenous infusion (100 ml volume over a 30-min period via central venous line placed in the left external jugular vein) beginning after the recipient animal's left pulmonary artery (PA) was clamped (i.e. at the time of recipient lung explant; approximately 40 min prior to initiation of graft reperfusion). All infusions were completed prior to reperfusion of the implanted lung.
A porcine left lung transplant model was utilized as previously described by our laboratory^18, with modifications as described here. On day 1, the donor animal was sedated and intubated. General anesthesia was maintained while animals were ventilated with 100% oxygen to measure baseline parameters. Lungs were ventilated to a tidal volume of 8.0 mL/kg with a respiratory rate of 22 breaths/min and a positive end-expiratory pressure of 5.0 cm H2O. Intravenous heparin (200 IU/kg, APP Pharmaceuticals, Schaumburg, IL) was administered.
Donor animals underwent a median sternotomy and pericardiotomy to expose the heart, great vessels, and lungs. Prostaglandin E1 ([…], Pfizer, New York, NY) was injected into the main PA. […] The lungs were then flushed with 1 L room temperature heparinized Perfadex (XVIVO Perfusion. Inc, Englewood, CO; 10,000 IU heparin per liter) via the cardioplegia cannula. At this point the lungs underwent 30 min of warm ischemia. At the conclusion of warm ischemia, the thoracic cavity was filled with cold (4° C.) slush, and lungs were flushed with an additional 1 L cold Perfadex via the main PA. At mid-inspiration, the trachea was clamped, and the heart-lung bloc was explanted. The lungs were then flushed retrograde with an additional IL cold Perfadex and placed in 4° C. cold storage for 24 hrs.
On day 2, recipient animals were anesthetized and ventilated as above for donor animals. A left thoracotomy was performed. and the left lung hilum was exposed. Central arterial and venous access was obtained for monitoring. Left pneumonectomy and left lung transplantation were performed as previously described.^18 Lung function was monitored during 4 hours of reperfusion while the left thoracotomy remained open. Combined (left and right) lung compliance was monitored throughout reperfusion. Airway pressure measurements and partial pressure of arterial oxygen (PaO2; systemic arterial as well as direct left pulmonary vein samples for graft-specific oxygenation) were obtained after 15 minutes, 1 hour and hourly thereafter. […] PaO2, PaCO2, and pH were measured using an i-STAT handheld blood analyzer (Abbott Point of Care, Princeton, NJ). After 4 hours of reperfusion, the animal was euthanized, and the heart-lung bloc was excised.
After completion of reperfusion, small peripheral samples of the transplanted left lungs were tied off, and fresh tissue samples were collected from the left upper lobe, the left lingula, and left lower lobe. The same surgeon collected all samples from consistent, peripheral, dependent locations of each lobe in all animals. These samples were either used fresh or flash-frozen in liquid nitrogen and stored at −80° C.
Fresh lung samples were patted dry, weighed, and dried in a vacuum oven at 56° C. until the weight stabilized (typically 3-4 days). Lung wet/dry weight ratios were then calculated to assess edema.
After collection of fresh lung samples, the left upper lobe was lavaged using 40 ml normal saline. Total cell counts and differential cell counts in BAL fluid were performed by the University of Virginia Clinical Laboratory in a blinded fashion. […]

[2] = after 4 hours of reperfusion, vs vehicle
[3] = after reperfusion, vs vehicle, P<0.05
[4] = after reperfusion, vs vehicle, trended lower

For `O=C(NC1(c2ccccc2)CC1)c1c(CN2CCC(N3CCCCC3)CC2)c(-c2cccc(C(F)(F)F)c2)nc2cc(Br)ccc12` [GSK219, GSK2193874], the “lung IRI” value (lung IRI) is listed as “significant attenuation”, the “reversibility of TRPV4 inhibition” value (TRPV4) is listed as “reversible” and the “adverse effects of administration” value ([1]; 1 mg/kg i.v. infusion over 30 min to recipient, 4 h reperfusion) is listed as “no adverse effects”. The “left lung-specific PaO2/FiO2 ratio” value ([1]; 3 hours of reperfusion, vehicle 85.4±17.2, P=0.026) was 276±57 mmHg, the “left lung-specific PaO2/FiO2 ratio” value ([1]; 4 hours of reperfusion, vehicle 104±28.6, P=0.003) was 303±37 mmHg and the “left lung wet/dry weight ratios” value [1, 2] was “no significant differences”. The “overall lung histology by H&E staining” value [1, 2] was “significantly improved”, the “wet/dry weight ratios of the left lingula and left lower lobe” value [1, 2] was “trend lower” and the “neutrophils in BAL fluid (percent of total cells, differential cell count)” value ([1]; after reperfusion, vehicle 80.2±1.4%, P=0.004) was 61.8±4.4%. For the same compound, the Ang-2 in plasma ([1]; after reperfusion, vs vehicle) was “significantly reduced”, the “HMGB1 in BAL fluid” value ([1]; after reperfusion, vs vehicle) was “significantly reduced” and the ICAM-1 in plasma ([1]; after reperfusion, vs vehicle) was “not significantly different”. The “IL-1β in BAL fluid” value ([1]; after reperfusion, vs vehicle) was “not significantly altered”, the “IL-8 in BAL fluid” value ([1]; after reperfusion, vs vehicle) was “significantly reduced” and the P-selectin in plasma ([1]; after reperfusion, vs vehicle) was “not significantly different”. For the same compound, the VCAM-1 in plasma ([1]; after reperfusion, vs vehicle) was “not significantly different”, the ZO-1 in plasma ([1]; after reperfusion, vs vehicle) was “significantly reduced” and the “ZO-2 in BAL fluid” value ([1]; after reperfusion, vs vehicle) was “not significantly different but trended lower”. The ZO-2 in plasma ([1]; after reperfusion, vs vehicle) was “but not occludin (FIG. 23A) or ZO-2 (FIG. 23D) were significantly reduced”, the claudin-5 in plasma ([1]; after reperfusion, vs vehicle) was “significantly reduced” and the occludin in plasma ([1]; after reperfusion, vs vehicle) was “but not occludin (FIG. 23A) or ZO-2 (FIG. 23D) were significantly reduced”. The “ZO-1 in BAL fluid” value [1, 3] was “significantly reduced”, the “claudin-5 in BAL fluid” value [1, 3] was “significantly reduced” and the “occludin in BAL fluid” value [1, 3] was “significantly reduced”. The “P-selectin in BAL fluid” value ([1]; after reperfusion, vs vehicle, P=0.0075) was “significantly reduced”, the “ICAM-1 in BAL fluid” value [1, 4] was “No significant changes” and the “VCAM1 in BAL fluid” value [1, 4] was “No significant changes”. The “reduction of neutrophil infiltration (immunohistochemistry of lung sections, neutrophils per HPF)” value ([1]; compared to vehicle control, P<0.0001) was 70%, the “systemic arterial PaO2/FiO2 ratio” value ([1]; during reperfusion, vs vehicle) was “improved during reperfusion in the GSK-treated group, although this was not significant” and the “histologic score for polymorphonuclear neutrophils per high-powered field (PMNs/HPF)” value ([1]; left lower lobe after reperfusion, vs vehicle, P=0.028) was “significantly improved”. For the same compound, the “histologic composite lung injury score” value ([1]; left lower lobe after reperfusion, vs vehicle, P=0.041) was “significantly improved”, the “histologic score for alveolar edema” value ([1]; left lower lobe after reperfusion, vs vehicle, P=0.048) was “significantly improved” and the “average pulmonary venous pH” value ([1]; throughout reperfusion, vehicle 7.3±0.024, no significant difference) was 7.3±0.020. For the same compound, the “average pulmonary venous PaCO2” value ([1]; throughout reperfusion, vehicle 60.1±2.11, no significant difference) was 60.4±1.46 mmHg.

From patent US20260284082A1, “TARGETING THE PANX1-P2Y2R-TRPV4 PATHWAY TO TREAT LUNG ISCHEMIA-REPERFUSION INJURY” (UNIVERSITY OF VIRGINIA PATENT FOUNDATION, priority 2023, published 2026)
